Values after ≈ are worked out from the molar mass of the structure shown. Where two headings read alike, the source gives them in different places. No end group written: not given here.
Columns and labels:
Pseudomonas aeruginosa = type: cell-based; conditions: for MIC value: Table 15, unit inferred
Description: The experiments were repeated three times.

Escherichia coli = conditions: for MIC value: Table 15, unit inferred
Description: (§1) MIC screening of the peptides against a panel of ATCC and clinical strains was performed using broth microdilution method.^1 Briefly, peptides stock solutions in DMSO (0.1/G TFA) were diluted into Mueller Hinton Broth (MHB), followed by two-fold serial dilution in a 96-well plate. Bacteria culture in mid-log phase was diluted into MHB to yield […] colony-forming units (CFU)/mL. Equal volume of the starting inoculum was added to the peptide samples, then incubated for 18-20 h (37° C., 120 rpm). OD600 of the samples was then measured using Tecan Infinite M200 (TECAN, Männedorf, Switzerland). MIC is defined as the lowest peptide concentration to achieve more than 90% reduction in OD600 relative to the drug-free control. The experiments were repeated three times. Colistin-resistant clinical isolates are a kind gift from Dr. Jeanette Koh (National University Hospital, Singapore). Multidrug-resistant clinical isolates are a kind gift from Dr. Lakshminarayanan Rajamani (Singapore Eye Research Institute, Singapore).
(§2) Kanamycin and ampicillin were used as antibacterial control agents. […] Then, sequential 2-fold serial dilutions of the mix were diluted in 50 μL MH broth and 50 μL cell cultures were added to wells. […] All assays were carried out in triplicate.

Acinetobacter baumannii = conditions: for MIC value: Table 15, unit inferred
Description: as §1, §2

Klebsiella pneumoniae = conditions: for MIC value: Table 15, unit inferred
Description: as §1, §2

Enterobacter cloacae = conditions: Table 15, unit inferred
Description: as §1, §2

Staphylococcus aureus = Staphylococcus aureus ATCC 29737
Description: as §1, §2

[1] = test system: Gram-positive and Gram-negative bacteria; conditions: panel of E. coli, K. pneumoniae, E. cloacae, A. baumannii, E. faecalis and S. aureus; preliminary screening
Description: as §1, §2

[2] = Pseudomonas aeruginosa DR4877/07
[3] = Pseudomonas aeruginosa DR5790/07
[4] = Acinetobacter baumanii ACβA1001
[5] = Acinetobacter baumanii ACβA1002
[6] = Acinetobacter baumanii ACβA1003
[7] = Acinetobacter baumanii ACβA1004
[8] = ATCC 25922, printed under Klebsiella pneumoniae

| Compound | MIC value (Pseudomonas aeruginosa; Pseudomonas aeruginosa DM4150R) [µg/mL] | MIC value (Pseudomonas aeruginosa; Pseudomonas aeruginosa DM23376) [µg/mL] | MIC value (Pseudomonas aeruginosa; [2]) [µg/mL] | MIC value (Pseudomonas aeruginosa; [3]) [µg/mL] | MIC value (Escherichia coli; Escherichia coli M2) [µg/mL] | MIC value (Escherichia coli; Escherichia coli M6) [µg/mL] | MIC value (Escherichia coli; Escherichia coli M10) [µg/mL] | MIC value (Escherichia coli; Escherichia coli M11) [µg/mL] | MIC value (Acinetobacter baumannii; [4]) [µg/mL] | MIC value (Acinetobacter baumannii; [5]) [µg/mL] | MIC value (Acinetobacter baumannii; [6]) [µg/mL] | MIC value (Acinetobacter baumannii; [7]) [µg/mL] | MIC value (Klebsiella pneumoniae; [8]) [µg/mL] | MIC value (Klebsiella pneumoniae; CRE1006, Klebsiella pneumoniae) [µg/mL] | MIC value (Klebsiella pneumoniae; Klebsiella pneumoniae CRE 1007) [µg/mL] | MIC value (Klebsiella pneumoniae; Klebsiella pneumoniae CRE1008) [µg/mL] | MIC value (Klebsiella pneumoniae; Klebsiella pneumoniae CRE1011) [µg/mL] | MIC value (Klebsiella pneumoniae; Klebsiella pneumoniae CRE1012) [µg/mL] | MIC value (Enterobacter cloacae; Enterobacter cloacae CRE1010) [µg/mL] | MIC value (Enterobacter cloacae; Enterobacter cloacae CRE1014) [µg/mL] | further results |
| --- | --- | --- | --- | --- | --- | --- | --- | --- | --- | --- | --- | --- | --- | --- | --- | --- | --- | --- | --- | --- | --- |
| CC(C)[C@@H]1NC(=O)[C@@H](N)Cc2c[nH]c3cc(ccc23)C(C(N)=O)[C@@H](C(=O)N[C@@H](C)C(=O)N[C@H]2Cc3cccc(c3)C(CCNC(=N)N)[C@@H](C(=O)N[C@H]3Cc4c[nH]c5cc(ccc45)C(CCCN)[C@@H](C(=O)N[C@@H](CCCNC(=N)N)C(=O)N[C@@H](Cc4ccccc4)C(=O)O)NC(=O)[C@H](CO)NC3=O)NC(=O)[C@H](C)NC2=O)NC1=O (some centres unmarked) [xenorceptide A12-2] | 32 (≈ 20.5 µM) | 32 (≈ 20.5 µM) | 32 (≈ 20.5 µM) | 32 (≈ 20.5 µM) | 4 (≈ 2.56 µM) | 2 (≈ 1.28 µM) | 2 (≈ 1.28 µM) | 4 (≈ 2.56 µM) | 16 (≈ 10.2 µM) | 8 (≈ 5.12 µM) | 16 (≈ 10.2 µM) | 16 (≈ 10.2 µM) | 1 (≈ 0.64 µM) | 2 (≈ 1.28 µM) | 4 (≈ 2.56 µM) | 4 (≈ 2.56 µM) | 8 (≈ 5.12 µM) | 4 (≈ 2.56 µM) | 2 (≈ 1.28 µM) | 32 (≈ 20.5 µM) | MIC value (Enterobacter cloacae; Enterobacter cloacae CRE1015): 16 µg/mL (≈ 10.2 µM); MIC value (Enterobacter cloacae; Enterobacter cloacae CRE1016): 16 µg/mL (≈ 10.2 µM); MIC value (Enterobacter cloacae; Enterobacter cloacae CRE1017): 32 µg/mL (≈ 20.5 µM) |
| CC(C)[C@@H]1NC(=O)[C@@H](N)Cc2c[nH]c3cc(ccc23)C(C(N)=O)[C@@H](C(=O)N[C@@H](C)C(=O)N[C@H]2Cc3ccc(cc3)C(C(N)=O)[C@@H](C(=O)N[C@H]3Cc4c[nH]c5cc(ccc45)C(CCCN)[C@@H](C(=O)N[C@@H](CCCNC(=N)N)C(=O)N[C@@H](Cc4ccccc4)C(=O)O)NC(=O)[C@H]([C@@H](C)O)NC3=O)NC(=O)[C@H](C)NC2=O)NC1=O (some centres unmarked) [xenorceptide A8] |  |  |  |  |  |  |  |  |  |  |  |  |  |  |  |  |  |  |  |  | MIC (Pseudomonas aeruginosa; Pseudomonas aeruginosa ATCC 9027): 64 µg/mL (≈ 41.7 µM); MIC (Staphylococcus aureus): >64 µg/mL; MIC (Escherichia coli; Escherichia coli ATCC 25922): 2 µg/mL (≈ 1.3 µM); MIC (Acinetobacter baumannii; Acinetobacter baumannii ATCC 19606): >64 µg/mL; MIC (Klebsiella pneumoniae; Klebsiella pneumoniae ATCC 700603): 4 µg/mL (≈ 2.61 µM) |
| CC(C)C[C@H](NC(=O)[C@H]1NC(=O)[C@H](Cc2ccccc2)NC(=O)[C@@H](NC(=O)[C@@H](NC(=O)[C@H](CCC(=O)O)NC(=O)[C@H](C)NC(=O)[C@@H](NC(=O)[C@H](CO)NC(=O)[C@H](C)N)[C@@H](C)O)[C@@H](C)O)Cc2c[nH]c3cc(ccc23)C1CCCN)C(=O)N[C@@H](CC(=O)O)C(=O)N[C@H]1Cc2c[nH]c3cc(ccc23)C(CCCN)[C@@H](C(=O)N[C@@H](CO)C(=O)N[C@@H](Cc2ccccc2)C(=O)O)NC(=O)[C@H](CCCCN)NC1=O (some centres unmarked) [Compound 21] |  |  |  |  |  |  |  |  |  |  |  |  |  |  |  |  |  |  |  |  | antibacterial activity [1]: no activity |
| Xenorceptide B1 (GDRWLKWIKNH; listed as Photorhabdus laumondii) | > 32 | > 32 | > 32 | > 32 | > 32 | > 32 | > 32 | > 32 | > 32 | > 32 | > 32 | > 32 | > 32 | > 32 | > 32 | > 32 | > 32 | > 32 | > 32 | > 32 | MIC value (Acinetobacter baumannii; Acinetobacter baumanii ATCC 19606): > 32 µg/mL; MIC value (Enterobacter cloacae; Enterobacter cloacae ATCC 13047): > 32 µg/mL; MIC value (Enterobacter cloacae; Enterobacter cloacae CRE1015): > 32 µg/mL; MIC value (Enterobacter cloacae; Enterobacter cloacae CRE1016): > 32 µg/mL; MIC value (Enterobacter cloacae; Enterobacter cloacae CRE1017): > 32 µg/mL |
| C[C@H](NC(=O)[C@H](CC(N)=O)NC(=O)[C@H](C)NC(=O)[C@@H](N)Cc1ccccc1)C(=O)N[C@H](C(=O)N[C@H]1Cc2c[nH]c3cc(ccc23)C(CCCN)[C@@H](C(=O)N[C@@H](CO)C(=O)N[C@@H](Cc2ccccc2)C(=O)O)NC(=O)[C@H](CO)NC1=O)[C@@H](C)O (some centres unmarked) [Compound 31] |  |  |  |  |  |  |  |  |  |  |  |  |  |  |  |  |  |  |  |  | antibacterial activity [1]: no activity |
| WVNAYARWTKRF [SEQ ID 26] |  |  |  |  |  |  |  |  |  |  |  |  |  |  |  |  |  |  |  |  | MIC (E. coli) (Escherichia coli; strain not stated, product produced and tested against E. coli): 8 µg/mL |

From patent publication US20260049104A1, “PEPTIDES WITH ANTIMICROBIAL PROPERTIES” (priority 2022, published 2026)
